# Experiments:
# [1] = Loss of heavy-isotope-labeled fatty acids during incubation (adsorption to container); assay type: physicochemical; details: 1% PS20, 200 mg/mL mAb3, 37° C., plastic tubes
# Method: The hydrolysis of PS20 in mAb formulations used for the fatty acid quantitation method of the invention was optimized by mixing 60 μL of 200 mg/mL mAb-3 (10 mM histidine, pH 6.3) with 0.62 μL, 1.26 μL, 3.2 μL and 6.8 μL 10% PS20 with or without 1.5 μL ISTD mixture (200 μg/mL lauric-d23 acid, 40 μg/mL myristic-d27 acid, and oleic acid-^13C18 in 20% methanol) in Eppendorf plastic tubes (category number 022431064) or Waters glass vials (SKU 600000668CV), […] Incubation samples were analyzed by LC multiple reaction monitoring (LC-MRM) after extraction (Table 2). Incubation conditions were optimized for measuring fatty acid content using LC-MRM after extraction. Fatty acids were extracted from mAb solution using an extraction protocol developed by Honemann et al. with an optimized precipitation buffer and extraction time (Honemann et al.). […] Subsequently, 40 μL of the supernatant was transferred to a 96-well plate, and 5 μL was subjected to LC-MRM for quantitation. […] Elution was performed at 0.4 mL/minute, and peaks at 1-7 minutes were analyzed using an ESI source operating in negative mode, with a gas temperature of 200° C., gas flow of 12 L/minute, nebulizer gas pressure of 20 psi, sheath gas temperature of 300° C., sheath gas flow of 11 L/min, capillary voltage of −3000 V, and nozzle voltage of 500 V. Lauric acid and lauric-d23 acid were monitored at 199.1/199.1 and 222.3/222.3; myristic acid and myristic-d27 acid were monitored at 227.2/227.2 and 254.4/254.4; palmitic acid, oleic acid, oleic acid-^13C18, stearic acid, and linoleic acid were monitored at 255.2/255.2, 281.2/281.2, 299.2/299.2, 283.2/283.2, and 279.2/279.2 with CE 5, respectively. […] Peak integration was performed by Skyline, and fatty acid concentrations were calculated based on a calibration curve created from a spiked-in fatty acid concentration plot against To investigate why fatty acids were lost during incubation, isotope-labeled fatty acids were employed. […]
# [2] = Solubility of free fatty acid in the formulation; assay type: physicochemical; details: mAb formulation, aqueous with cosolvent or surfactant or cyclodextrin
SMILES,fatty acid lost after 6-day incubation [1] [%],solubility [2] [mg/mL]
CCCCCCCCCCCCCC(=O)O [myristic acid],34,–
CCCCCCCC/C=C\CCCCCCCC(=O)O [oleic acid],15,–
CCCCCCCCCCCC(=O)O [lauric acid],50,> 0.02

# From patent publication US12517098B2, “Monitoring polysorbate hydrolysis in pharmaceutical formulations using an ultrasensitive extraction-free fatty acid quantitation method” (Regeneron Pharmaceuticals, Inc., priority 2021, dated 2026)
